pIC50: −log10 of the molar value.
These compounds were tested against CDK2/Cyclin E1 (Homo sapiens (Human), UniProt P24941) (assay: CDK2/Cyclin E1 HTRF enzyme activity assay). Conditions: 1 mM ATP.
Format: biochemical
Method: Assays are conducted in white 384-well polystyrene plates in a final reaction volume of 8 μL. […] HTRF signals are read after 1 hour at room temperature on a PHERAstar FS plate reader (BMG Labtech). Data is analyzed with IDBS XLFit and GraphPad Prism 5.0 software using a three or four parameter dose response curve to determine IC50 for each compound.

pIC50, > 7.30:
CC(C)(O)Cn1cc(-c2nc(NC3CCN(S(=O)(=O)CCCN4CCOCC4)CC3)ncc2C(F)(F)F)cn1 [Example 63, 2-Methyl-1-(4-(2-((1-((3-morpholinopropyl)sulfonyl)piperidin-4-yl)amino)-5-(trifluoromethyl)pyrimidin-4-yl)-1H-pyrazol-1-yl)propan-2-ol]
CCN(CC)CCCS(=O)(=O)N1CCC(Nc2ncc(C(F)(F)F)c(-c3cnn(CC(C)(C)O)c3)n2)CC1 [Example 64, 1-(4-(2-((1-((3-(Diethylamino)propyl)sulfonyl)piperidin-4-yl)amino)-5-(trifluoromethyl)pyrimidin-4-yl)-1H-pyrazol-1-yl)-2-methylpropan-2-ol]
CC(C)(O)Cn1cc(-c2nc(NC3CCN(S(=O)(=O)CCCN4CCCC4)CC3)ncc2C(F)(F)F)cn1 [Example 66, 2-Methyl-1-(4-(2-((1-((3-(pyrrolidin-1-yl)propyl)sulfonyl)piperidin-4-yl)amino)-5-(trifluoromethyl)pyrimidin-4-yl)-1H-pyrazol-1-yl)propan-2-ol]
CC(C)(O)Cn1cc(-c2nc(NC3CCN(S(=O)(=O)CCCN4CCCCC4)CC3)ncc2C(F)(F)F)cn1 [Example 67, 2-Methyl-1-(4-(2-((1-((3-(piperidin-1-yl)propyl)sulfonyl)piperidin-4-yl)amino)-5-(trifluoromethyl)pyrimidin-4-yl)-1H-pyrazol-1-yl)propan-2-ol]
CN1CCN(CCCS(=O)(=O)N2CCC(Nc3ncc(C(F)(F)F)c(-c4cnn(CC(C)(C)O)c4)n3)CC2)CC1 [Example 68, 2-Methyl-1-(4-(2-((1-((3-(4-methylpiperazin-1-yl)propyl)sulfonyl)piperidin-4-yl)amino)-5-(trifluoromethyl)pyrimidin-4-yl)-1H-pyrazol-1-yl)propan-2-ol]
CC(C)(O)Cn1cc(-c2nc(NC3CCN(S(=O)(=O)CCCN4CCNC(=O)C4)CC3)ncc2C(F)(F)F)cn1 [Example 69, 4-(3-((4-((4-(1-(2-Hydroxy-2-methylpropyl)-1H-pyrazol-4-yl)-5-(trifluoromethyl)pyrimidin-2-yl)amino)piperidin-1-yl)sulfonyl)propyl)piperazin-2-one]
CN1CCN(CCCS(=O)(=O)N2CCC(Nc3ncc(C(F)(F)F)c(-c4cnn(CC(C)(C)O)c4)n3)CC2)CC1=O [Example 70, 4-(3-((4-((4-(1-(2-Hydroxy-2-methylpropyl)-1H-pyrazol-4-yl)-5-(trifluoromethyl)pyrimidin-2-yl)amino)piperidin-1-yl)sulfonyl)propyl)-1-methylpiperazin-2-one]
C[C@H]1COCCN1CCCS(=O)(=O)N1CCC(Nc2ncc(C(F)(F)F)c(-c3cnn(CC(C)(C)O)c3)n2)CC1 [Example 71, (S)-2-Methyl-1-(4-(2-((1-((3-(3-methylmorpholino)propyl)sulfonyl)piperidin-4-yl)amino)-5-(trifluoromethyl)pyrimidin-4-yl)-1H-pyrazol-1-yl)propan-2-ol]
C[C@@H]1COCCN1CCCS(=O)(=O)N1CCC(Nc2ncc(C(F)(F)F)c(-c3cnn(CC(C)(C)O)c3)n2)CC1 [Example 72, (R)-2-Methyl-1-(4-(2-((1-((3-(3-methylmorpholino)propyl)sulfonyl)piperidin-4-yl)amino)-5-(trifluoromethyl)pyrimidin-4-yl)-1H-pyrazol-1-yl)propan-2-ol]
CC(C)(O)Cn1cc(-c2nc(NC3CCN(S(=O)(=O)CCCN4CCOCC45CC5)CC3)ncc2C(F)(F)F)cn1 [Example 73, 1-(4-(2-((1-((3-(7-Oxa-4-azaspiro[2.5]octan-4-yl)propyl)sulfonyl)piperidin-4-yl)amino)-5-(trifluoromethyl)pyrimidin-4-yl)-1H-pyrazol-1-yl)-2-methylpropan-2-ol]
COC[C@H]1CCN(CCCS(=O)(=O)N2CCC(Nc3ncc(C(F)(F)F)c(-c4cnn(CC(C)(C)O)c4)n3)CC2)C1 [Example 74, (S)-1-(4-(2-((1-((3-(3-(Methoxymethyl)pyrrolidin-1-yl)propyl)sulfonyl)piperidin-4-yl)amino)-5-(trifluoromethyl)pyrimidin-4-yl)-1H-pyrazol-1-yl)-2-methylpropan-2-ol]
CC(C)(O)Cn1cc(-c2nc(NC3CCN(S(=O)(=O)CCCN4CCC(O)CC4)CC3)ncc2C(F)(F)F)cn1 [Example 75, 1-(3-((4-((4-(1-(2-Hydroxy-2-methylpropyl)-1H-pyrazol-4-yl)-5-(trifluoromethyl)pyrimidin-2-yl)amino)piperidin-1-yl)sulfonyl)propyl)piperidin-4-ol]
CC(C)(O)Cn1cc(-c2nc(NC3CCN(S(=O)(=O)CCCN4CCC(C#N)CC4)CC3)ncc2C(F)(F)F)cn1 [Example 76, 1-(3-((4-((4-(1-(2-Hydroxy-2-methylpropyl)-1H-pyrazol-4-yl)-5-(trifluoromethyl)pyrimidin-2-yl)amino)piperidin-1-yl)sulfonyl)propyl)piperidine-4-carbonitrile]
COC1CCN(CCCS(=O)(=O)N2CCC(Nc3ncc(C(F)(F)F)c(-c4cnn(CC(C)(C)O)c4)n3)CC2)CC1 [Example 77, 1-(4-(2-((1-((3-(4-Methoxypiperidin-1-yl)propyl)sulfonyl)piperidin-4-yl)amino)-5-(trifluoromethyl)pyrimidin-4-yl)-1H-pyrazol-1-yl)-2-methylpropan-2-ol]
CN(C)CCCCS(=O)(=O)N1CCC(Nc2ncc(C(F)(F)F)c(-c3cnn(CC(C)(C)O)c3)n2)CC1 [Example 78, 1-(4-(2-((1-((4-(Dimethylamino)butyl)sulfonyl)piperidin-4-yl)amino)-5-(trifluoromethyl)pyrimidin-4-yl)-1H-pyrazol-1-yl)-2-methylpropan-2-ol]
CCN(CC)CCCCS(=O)(=O)N1CCC(Nc2ncc(C(F)(F)F)c(-c3cnn(CC(C)(C)O)c3)n2)CC1 [Example 79, 1-(4-(2-((1-((4-(Diethylamino)butyl)sulfonyl)piperidin-4-yl)amino)-5-(trifluoromethyl)pyrimidin-4-yl)-1H-pyrazol-1-yl)-2-methylpropan-2-ol]
CC(C)(O)Cn1cc(-c2nc(NC3CCN(S(=O)(=O)CCCCN4CCCC4)CC3)ncc2C(F)(F)F)cn1 [Example 80, 2-Methyl-1-(4-(2-((1-((4-(pyrrolidin-1-yl)butyl)sulfonyl)piperidin-4-yl)amino)-5-(trifluoromethyl)pyrimidin-4-yl)-1H-pyrazol-1-yl)propan-2-ol]
CC(C)(O)Cn1cc(-c2nc(NC3CCN(S(=O)(=O)CCCCN4CCCCC4)CC3)ncc2C(F)(F)F)cn1 [Example 81, 2-Methyl-1-(4-(2-((1-((4-(piperidin-1-yl)butyl)sulfonyl)piperidin-4-yl)amino)-5-(trifluoromethyl)pyrimidin-4-yl)-1H-pyrazol-1-yl)propan-2-ol]
CC(C)(O)Cn1cc(-c2nc(NC3CCN(S(=O)(=O)CCN4CCCC4)CC3)ncc2C(F)(F)F)cn1 [Example 82, 2-Methyl-1-(4-(2-((1-((2-(pyrrolidin-1-yl)ethyl)sulfonyl)piperidin-4-yl)amino)-5-(trifluoromethyl)pyrimidin-4-yl)-1H-pyrazol-1-yl)propan-2-ol]
CN(C)CCS(=O)(=O)N1CCC(Nc2ncc(C(F)(F)F)c(-c3cnn(CC(C)(C)O)c3)n2)CC1 [Example 83, 1-(4-(2-((1-((2-(Dimethylamino)ethyl)sulfonyl)piperidin-4-yl)amino)-5-(trifluoromethyl)pyrimidin-4-yl)-1H-pyrazol-1-yl)-2-methylpropan-2-ol]
CC(C)(O)Cn1cc(-c2nc(NC3CCN(S(=O)(=O)CCN4CCOCC4)CC3)ncc2C(F)(F)F)cn1 [Example 84, 2-Methyl-1-(4-(2-((1-((2-morpholinoethyl)sulfonyl)piperidin-4-yl)amino)-5-(trifluoromethyl)pyrimidin-4-yl)-1H-pyrazol-1-yl)propan-2-ol]
CN1CC(S(=O)(=O)N2CCC(Nc3ncc(C(F)(F)F)c(-c4cnn(CC(C)(C)O)c4)n3)CC2)C1 [Example 85, 2-Methyl-1-(4-(2-((1-((1-methylazetidin-3-yl)sulfonyl)piperidin-4-yl)amino)-5-(trifluoromethyl)pyrimidin-4-yl)-1H-pyrazol-1-yl)propan-2-ol]
CN1CCC(S(=O)(=O)N2CCC(Nc3ncc(C(F)(F)F)c(-c4cnn(CC(C)(C)O)c4)n3)CC2)CC1 [Example 87, 2-Methyl-1-(4-(2-((1-((1-methylpiperidin-4-yl)sulfonyl)piperidin-4-yl)amino)-5-(trifluoromethyl)pyrimidin-4-yl)-1H-pyrazol-1-yl)propan-2-ol]
CC(C)(O)Cn1cc(-c2nc(NC3CCN(S(=O)(=O)CCCO)CC3)ncc2C(F)(F)F)cn1 [Example 92, 3-((4-((4-(1-(2-Hydroxy-2-methylpropyl)-1H-pyrazol-4-yl)-5-(trifluoromethyl)pyrimidin-2-yl)amino)piperidin-1-yl)sulfonyl)propan-1-ol]
CC(C)(O)Cn1cc(-c2nc(NC3CCN(S(=O)(=O)CCCCO)CC3)ncc2C(F)(F)F)cn1 [Example 93, 4-((4-((4-(1-(2-Hydroxy-2-methylpropyl)-1H-pyrazol-4-yl)-5-(trifluoromethyl)pyrimidin-2-yl)amino)piperidin-1-yl)sulfonyl)butan-1-ol]
CC(C)(O)CCS(=O)(=O)N1CCC(Nc2ncc(C(F)(F)F)c(-c3cnn(CC(C)(C)O)c3)n2)CC1 [Example 94, 4-((4-((4-(1-(2-Hydroxy-2-methylpropyl)-1H-pyrazol-4-yl)-5-(trifluoromethyl)pyrimidin-2-yl)amino)piperidin-1-yl)sulfonyl)-2-methylbutan-2-ol]
CCS(=O)(=O)N1CCC(Nc2ncc(C(F)(F)F)c(-c3cnn(C(C)(C)C(N)=O)c3)n2)CC1 [Example 97, 2-(4-(2-((1-(Ethylsulfonyl)piperidin-4-yl)amino)-5-(trifluoromethyl)pyrimidin-4-yl)-1H-pyrazol-1-yl)-2-methylpropanamide]
